According to patent publication US20260306500A1, “METHOD OF INHIBITING ADENOSINE TRIPHOSPHATE SECRETION, METHOD OF INHIBITING HEPATIC STELLATE CELL ACTIVATION, METHOD OF DEACTIVATING HEPATIC STELLATE CELL, METHOD OF TREATING HEPATIC FIBROSIS, METHOD OF TREATING NON-ALCOHOLIC STEATOHEPATITIS, AND METHOD OF TREATING PSORIASIS” (Kurume University, priority 2023, published 2026):
Structures can show the parent of a compound that is named as a salt.

Tests used:
[1] = system: chromaffin granule membrane; assay: ATP transport (uptake of radiolabeled ATP) in chromaffin granule membrane vesicles; assay type: biochemical, cattle; details: role: inhibitor, MANT-ATP
Protocol: (§1) Chromaffin granule membranes were prepared from adrenal glands collected from slaughtered cattle according to Reference A (Nathan Nelson et al., 1988, Chromaffin Granule Proton Pump, Methods in Enzymology, 157, 619-633). Chromaffin granule membranes prepared by sucrose density gradient centrifugation were suspended in 2 ml of SME buffer (20 mM MOPS-tris (pH 7.0), 0.3 M sucrose, 5 mM EDTA, 10 μg/ml leupeptin, and 10 μg/ml pepstatin)+25% glycerol, and the resulting suspension was aliquoted and stored at −80° C. Under these conditions, the ATP transport activity, the V-ATPase activity, and the catecholamine transport activity remain fully active for at least one year.
An ATP transport inhibition experiment for the chromaffin granule membrane was carried out according to Reference B (Yoshinori Moriyama et al., 2022, Is the vesicular nucleotide transporter a molecular target of eicosapentaenoic acid?, Frontiers in Pharmacology, 103389). About 20 μg of chromaffin granule membranes were added to 0.5 ml of measurement buffer (20 mM MOPS-tris (pH 7.0), 0.3 M sucrose, 5 mM potassium chloride, 5 mM magnesium acetate, 5 mM creatine phosphate, 10 units of creatine kinase, and 1 mM 3[H]-ATP [15 KBq/assay]), followed by incubation at 30° C. for 1 hour. Through a Millipore MCE membrane filter with a pore size […], 0.2 ml of the reaction liquid was filtered by suction. Thereafter, the filter was washed with 10 ml of 20 mM MOPS-tris (pH 7.0), 0.3 M sucrose, 5 mM potassium chloride, and 5 mM magnesium acetate, and dissolved in 10 ml of Clear-sol II (manufactured by Nacalai Tesque, Inc.). The radioactivity was then measured using a liquid scintillation counter (N=3).
The reaction was initiated by adding 50 mM ^3[H]-ATP to a final concentration of 1 mM. The 50 mM ^3[H]-ATP was prepared by mixing an ATP-tris solution (manufactured by Sigma-Aldrich) with [2,8-^3H]adenosine triphosphate tetrasodium salt (26.0 Ci/mmol) (manufactured by New England Nuclear). PEP was used as a test reagent, and pyruvic acid was used as a negative control. Five minutes before the addition of ATP, PEP or pyruvic acid, as a solution in 20 mM MOPS-tris (pH 7.0), 0.3 M sucrose, 5 mM potassium chloride, and 5 mM magnesium acetate, was added to the measurement liquid to a final PEP concentration of 0.02, 0.05, 0.1, 0.2, 0.4, or 1 mM, or to a final pyruvic acid concentration of 0.5 or 1 mM.
(§2) Chromaffin granule membrane vesicles were prepared in the same manner as in Example 5, and uptake of radiolabeled ATP into the vesicles was measured. Transport activity of catecholamine (dopamine) and ATP-dependent proton transport by V-ATPase were also measured in the same manner as in Example 5.

[2] = system: ATP-loaded vesicles of keratinocytes; assay: Accumulation of MANT-ATP in granules of keratinocytes (confocal microscopy); assay type: cell-based, human; details: 0.3 mM MANT-ATP, control without imeglimin (FIG. 13)
Protocol: Keratinocytes were cultured in the same manner as in Example 8. Keratinocytes were cultured at 4×10^4 cells/ml in a glass-bottom dish (35 mm, manufactured by Matsunami Glass Ind., Ltd.) at 37° C. in 5% CO2 for 2 days. The culture medium was then replaced with a medium supplemented with MANT-ATP (manufactured by Invitrogen) at a final concentration of 0.3 mM, and further incubation was performed for 4.5 hours. Subsequently, imeglimin was added thereto to a final concentration of 10 μM, and further incubation was performed at 37° C. in 5% CO2 for 19 hours. Thereafter, the cells were washed twice with HBSS (manufactured by Gibco) and observed using an inverted confocal laser microscope (FV-1000 OSR, manufactured by Olympus Corporation).

V-ATPase [3] = target: T1, V-ATPase (Bos taurus, UniProt P31404+P31408); assay: ATP-dependent proton transport by V-ATPase (acridine orange fluorescence quenching); assay type: biochemical, cattle
T1 construct: Chromaffin granule membranes were prepared from adrenal glands collected from slaughtered cattle; from tissue; host or cells: cattle adrenal glands, chromaffin granule membranes (sucrose density gradient)
T1 sequence (P31404 whole entry, looked up): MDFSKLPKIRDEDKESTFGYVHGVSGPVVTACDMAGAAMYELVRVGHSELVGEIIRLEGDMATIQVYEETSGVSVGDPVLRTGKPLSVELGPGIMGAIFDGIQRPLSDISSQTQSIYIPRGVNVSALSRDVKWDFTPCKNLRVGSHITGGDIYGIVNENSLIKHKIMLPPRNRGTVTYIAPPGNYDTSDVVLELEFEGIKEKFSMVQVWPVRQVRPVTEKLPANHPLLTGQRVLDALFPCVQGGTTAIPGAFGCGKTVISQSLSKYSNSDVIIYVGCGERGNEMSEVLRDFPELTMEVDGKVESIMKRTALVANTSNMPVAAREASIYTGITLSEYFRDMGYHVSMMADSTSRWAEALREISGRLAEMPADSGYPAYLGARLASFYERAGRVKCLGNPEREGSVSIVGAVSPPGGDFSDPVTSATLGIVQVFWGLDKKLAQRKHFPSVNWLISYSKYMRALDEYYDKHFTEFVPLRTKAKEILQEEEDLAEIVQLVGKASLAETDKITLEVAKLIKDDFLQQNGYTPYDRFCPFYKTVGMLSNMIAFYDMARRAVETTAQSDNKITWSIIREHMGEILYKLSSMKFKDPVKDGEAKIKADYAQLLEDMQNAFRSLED
T1 sequence (P31408 whole entry, looked up): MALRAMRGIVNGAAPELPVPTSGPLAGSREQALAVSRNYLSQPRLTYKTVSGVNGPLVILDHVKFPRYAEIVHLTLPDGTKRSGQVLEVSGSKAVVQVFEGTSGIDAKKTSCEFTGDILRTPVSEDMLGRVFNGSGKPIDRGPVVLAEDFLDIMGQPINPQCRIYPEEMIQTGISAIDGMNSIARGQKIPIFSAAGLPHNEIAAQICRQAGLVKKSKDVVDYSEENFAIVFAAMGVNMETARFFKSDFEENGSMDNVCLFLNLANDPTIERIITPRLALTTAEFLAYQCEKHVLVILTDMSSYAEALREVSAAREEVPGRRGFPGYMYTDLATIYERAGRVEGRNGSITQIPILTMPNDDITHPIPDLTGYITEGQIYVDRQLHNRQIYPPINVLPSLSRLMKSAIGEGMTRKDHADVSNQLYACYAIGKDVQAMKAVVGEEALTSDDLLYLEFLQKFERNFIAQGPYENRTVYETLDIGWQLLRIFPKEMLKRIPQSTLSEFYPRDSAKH
Protocol: as §1
ATP-dependent proton transport by V-ATPase was measured according to Reference B. Proton transport activity was measured using a spectrofluorometer at excitation wavelength of 492 nm and a fluorescence wavelength 540 nm, wherein fluorescence quenching of acridine orange was used as an index (N=2). The transmembrane potential generated was measured using a spectrofluorometer at an excitation wavelength of 580 nm and a fluorescence wavelength of 630 nm, wherein fluorescence quenching of oxonol-V was used as an index (N=2). The acridine measurement liquid (2 ml) contained 20 mM MOPS-tris (pH 7.0), 0.2 M sucrose, 0.1 M potassium chloride, 5 mM magnesium acetate, 0.2 μg valinomycin, 2 μM acridine orange, and about 20 μg of chromaffin granules. The oxonol-V measurement liquid (2 ml) contained 20 mM MOPS-tris (pH 7.0), 0.3 M sucrose, 5 mM magnesium acetate, 5 μM oxonol-V, and about 20 μg of chromaffin granules.
as §2

[4] = system: catecholamine transport of chromaffin granule membranes; assay: Catecholamine (dopamine) transport in chromaffin granule membranes; assay type: biochemical, cattle; details: role: inhibitor; MANT-ATP, N=3 (FIG. 11)
Protocol: as §1
A catecholamine transport inhibition experiment was carried out in the same manner as the ATP transport experiment except that the experiment used a measurement liquid containing 20 mM MOPS-tris (pH 7.0), 0.1 M sucrose, 0.1 M potassium chloride, 5 mM magnesium acetate, and about 5 μg of chromaffin granule membranes. To 0.5 ml of the measurement liquid, 2 mM ATP was added, and the resulting mixture was incubated at 30° C. for about 5 minutes, followed by addition of 3[H]-dopamine thereto to a final concentration of 10 μM. After further incubation at 30° C. for 15 minutes, 0.2 ml of the reaction liquid was subjected to suction filtration through a Millipore MCE membrane filter with a pore size of 0.45 μm, and the radioactivity on the filter was measured (N=3). The substrate, 3[H]-dopamine, was prepared by mixing 3,4-[RING-2,5,6-^3H]dihydroxyphenylethylamine (dopamine) (30 Ci/mmol) (manufactured by New England Nuclear) with dopamine hydrochloride (manufactured by LKT Laboratories) such that a final concentration of […] was achieved during the use.
as §2

[5] = system: human epidermal keratinocytes; assay: ATP secretion from keratinocytes upon LPS stimulation; assay type: cell-based; details: 10 μM, 18 hours, 10 μg/ml LPS, N=8 (FIG. 8)
Protocol: Keratinocytes were cultured in the same manner as in Example 1. Keratinocytes were cultured at 2.5×10^4 cells/well in a 24-well plate at 37° C. in 5% CO2 for 4 days. The medium was replaced with a test solution (Hanks' balanced salt solution (HBSS) (manufactured by Gibco) supplemented with imeglimin, metformin, or clodronate), and then incubation was performed at 37° C. in 5% CO2 for 18 hours. Thereafter, LPS (10 μg/ml) was added thereto, and incubation was further carried out for 10 minutes, followed by collection of 200 μl of the supernatant. The supernatant was immediately treated on a heat block at 95° C. for 10 minutes, and ATP in the supernatant was quantified using an ATP Assay Kit−Luminescence (manufactured by Dojindo) (N=8).

[6] = system: human epidermal keratinocytes; assay: ATP secretion from human epidermal keratinocytes promoted by ionomycin; assay type: cell-based
Protocol: Human epidermal keratinocytes (Cryopreserved HEK, Lot 1758, Cell Applications Inc.) were cultured using an Epivita Keratinocyte Growth Medium Kit according to the manufacturer's instructions. The procedure was as follows. A supplement medium was added to a hydrocortisone-containing basal medium included in the medium preparation kit to prepare a complete medium. The medium in the dish was removed by aspiration. The cells were washed with 5 ml of BSS (Gbco), and then the BSS was removed by aspiration. After addition of 5 to 6 ml of trypsin/EDTA solution (Gbco), the dish was incubated at 37° C. for 2 minutes. After addition of 5 ml of trypsin neutralization solution, the resulting cell suspension was transferred into two 15-ml Falcon tubes, and centrifuged at 200×g for 5 minutes. The supernatant was removed by aspiration, and the pelleted cell cluster was suspended in 2 ml of the medium at 4.5×10^5 cells/ml. An aliquot of the resulting cell suspension was cryopreserved, while another aliquot was cultured and subjected to measurement.
ATP secretion by human epidermal keratinocytes (hereinafter referred to as “keratinocytes”) was measured. Regarding control solutions, Krebs-Ringer HEPES supplemented with 0.2% BSA and 25 mM glucose (hereinafter also referred to as “Krebs/Iono(−)”) was used as a negative control, and a solution prepared by adding 5 μM ionomycin to this solution (hereinafter also referred to as “Krebs/Iono(+)”) was used as a positive control for ATP secretion. Ionomycin is a Ca^2+ ionophore. Addition of ionomycin to cells is known to promote influx of extracellular Ca^2+ into the cells to increase the intracellular Ca^2+ concentration, resulting in enhancement of ATP secretion. Test solutions were prepared by adding clodronate to Krebs/Iono(−) or Krebs/Iono(+) to a final concentration of 0.1 μM (hereinafter also referred to as “Clo/Iono(−)” or “Clo/Iono(+)”, respectively) (N=3).
Keratinocytes were cultured at 2.5×10^4 cells/well in a 24-well plate at 37° C. in 5% CO2 for 4 days. The medium was removed by aspiration, replaced with Krebs/Iono(−) or Clo/Iono(−), and incubated at 37° C. for 6 hours. These solutions were then removed by aspiration, and the content of each well incubated with Krebs/Iono(−) was replaced with 300 μl of a control solution (Krebs/Iono(−) or Krebs/Iono(+)), while the content of each well incubated with Clo/Iono(−) was replaced with 300 μl of a test solution (Clo/Iono(−) or Clo/Iono(+)). After further incubation at 37° C. for 20 minutes, 200 μl of the supernatant was collected. The collected supernatant was immediately treated on a heat block at 95° C. for 10 minutes, to inactivate ectonucleotidase. ATP in the supernatant was quantified using a Dojindo ATP assay kit−Luminescence (manufactured by Dojindo Laboratories).
Keratinocytes were cultured in the same manner as in Example 1, and ATP secretion from the keratinocytes was measured. Krebs/Iono(−), or a solution prepared by adding 10 μM imeglimin, 0.1 μM eicosapentaenoic acid (EPA), 1 μM EPA, or 10 μM clodronate to Krebs/Iono(−) was used (N=4).
After culturing keratinocytes, the medium was removed by aspiration, and replaced with Krebs/Iono(−), or Krebs/Iono(−) supplemented with 10 μM imeglimin, 0.1 μM EPA, 1 μM EPA, or 10 μM clodronate, followed by incubation for 6 hours. Subsequently, the solution was replaced with either a control solution (Krebs/Iono(−) or Krebs/Iono(+)) or a test solution (Krebs/Iono(+) supplemented with 10 μM imeglimin, 0.1 μM EPA, 1 μM EPA, or 10 μM clodronate), followed by incubation at 37° C. for 20 minutes and then collection of 200 μl of the supernatant. The collected supernatant was immediately treated on a heat block at 95° C. for 10 minutes to inactivate ectonucleotidase. ATP in the supernatant was quantified using a Dojindo ATP assay kit—Luminescence (manufactured by Dojindo Laboratories). […]

V-ATPase [7] = assay: Inhibitory effect on V-ATPase (data not shown)
VNUT = assay: Inhibitory effect on VNUT (data not shown)

SMILES | mode of inhibition of ATP transport by VNUT [1] | ATP transport ([1]; radiolabeled ATP, N=3 (FIG. 10)) | IC50 ([1]; radiolabeled ATP, N=3 (FIG. 10), read-out: ID50 of ATP transport) | accumulation in the granules in keratinocytes [2] | effect on ATP-dependent proton transport by V-ATPase (V-ATPase [3]; role: inhibitor, MANT-ATP up to 100 μM, N=1 (FIG. 12)) | quenching of acridine orange fluorescence (V-ATPase [3]; role: substrate, 0.1 mM MANT-ATP) | total acridine orange fluorescence quenching (V-ATPase [3]; role: substrate, 0.1 mM MANT-ATP followed by addition of ATP) | effect on catecholamine transport system [4] | LPS-stimulated ATP secretion [5] | ATP secretion inhibitory effect at low concentration ([6]; 0.1 μM, 6 h preincubation, ionomycin) | ATP secretion inhibitory effect at higher concentrations ([6]; up to 10 μM metformin) | inhibitory effect on V-ATPase (V-ATPase [7]) | inhibitory effect on VNUT (VNUT)
CNc1ccccc1C(=O)O[C@H]1[C@@H](O)[C@H](n2cnc3c(N)ncnc32)O[C@@H]1COP(=O)(O)OP(=O)(O)OP(=O)(O)O [MANT-ATP, 2′/3′-O—(N-methyl-anthraniloyl)-adenosine-5′-triphosphate triethylammonium salt] | competitively inhibits | strongly inhibited ATP transport | ~30 mM | accumulation of MANT-ATP in the granules | did not affect | 34% | 61.8% | hardly affected |  |  |  |  | 
CN(C)C(=N)NC(=N)N [metformin] |  |  |  |  |  |  |  |  | almost completely inhibited | exhibit an ATP secretion inhibitory effect | decreased inhibitory effect at higher concentrations | neither imeglimin nor metformin exhibited a strong inhibitory effect | neither imeglimin nor metformin exhibited a strong inhibitory effect
